Results on three molecules are retold here after patent publication US20230310436A1, “COMBINATION THERAPY FOR CANCERS WITH KRAS MUTATION” (COTHERA BIOSCIENCE, INC., priority 2019, published 2023).

Holding throughout (assay type): cell-based
Assay [1] concerns KRAS^G12C-NSCLC H2030 cell line. Kind of assay: Ex vivo Edu proliferation test (MI, GI %), H2030. The following applies: Table 2a; 7 days; uM: osimertinib 0.5, afatinib 0.2, cobimetinib 0.4, trametinib 0.02, palbociclib 0.15, ribociclib 5. The method, then: (§1) For ex vivo drug testing, the cells were exposed to a combination of drugs or single drugs for 4 days or 7 days. Following exposure with drug, 1,000-5,000 cells were labeled with 5-ethynyl-2′-deoxyuridine (Edu) to assess the tumor cell proliferation rates. The labeling lasted 24 hours in the presence of drug exposure. In the control group, epithelial tumor cells received no drug exposure with media change (with 0.1% DMSO), but were similarly labeled with Edu. The labeled cells were fixed and blocked with 3% BSA and 0.5% Triton X-100 for 2 hours at room temperature, followed by staining with Hoechst 33342 and EpCAM antibody (1:4000) in PBS solution containing 0.5% Triton X-100 overnight at 4° C. Subsequently, the cells were rinsed with PBST then incubated with Alexa Fluor® 647 conjugated goat-antimouse secondary antibody for 30 minutes at room temperature.
(§2) The incorporated Edu was detected by Click-iT reaction where fixed cells were incubated with a reaction mixture containing 1× Click-iT Edu reaction buffer, CuSO4, and azide-conjugated Alexa Fluor dye in the dark. The stained cells were washed with PBS two times before image acquisition and analysis.
(§3) For image acquisition and analysis, the stained tumor cells were imaged by a high-content screening (HCS) platform (Thermo Scientific CellomicsArrayScanXTi HCS reader). The 10× objective was used to collect images. Twenty-five fields were imaged for each well for the analysis. From the images three fluorescent signals were obtained from the HCS reader. Blue fluorescent signals recorded nucleus signals stained with Hoechst 33342, green fluorescent signal detected the Edu incorporated in newly synthesized DNA, and red fluorescent signal detected the EpCAM positive epithelial cells population.
(§4) The MI (Maximum Inhibition Index) was calculated using the EpCAM and Edu positive readout (Tables 1-4). MI=Edu positive cells in control/Edu positive cells in treatment. MI4 indicates an MI value after 4 days of treatment and MI7 indicates an MI values after 7 days of treatment. The MI and growth inhibition rate (GI %) values for KRAS^G12A-NSCLC (H1573 and H2009), KRAS^G12C-NSCLC (H358, H23 and H2030), KRAS^G12V-NSCLC (H2291 and H2444) and KRAS^G12D-NSCLC (H1588 and SK-LU-1) cell lines are shown in Tables 1-4, respectively. GI % is calculated as GI %=(1−1/MI)*100%.

Assay [2] concerns KRAS^G12A-NSCLC H2009 cell line. Briefly: Ex vivo Edu proliferation test (MI, GI %), H2009. The following applies: Table 1; 4 days; uM: osimertinib 0.5, afatinib 0.2, cobimetinib 0.4, trametinib 0.02, TAK-733 0.18, palbociclib 0.15, ribociclib 5. As for the experimental part: as §1, §2, §3, §4
The subject of assay [3] is KRAS^G12C-NSCLC H358 cell line. Briefly: Ex vivo Edu proliferation test (MI, GI %), H358. The following applies: Table 2a; 7 days; uM: osimertinib 0.5, afatinib 0.2, cobimetinib 0.4, trametinib 0.02, palbociclib 0.15, ribociclib 5. The method, then: as §1, §2, §3, §4
Assay [4] relates to KRAS^G12V-NSCLC H2291 cell line. Kind of assay: Ex vivo Edu proliferation test (MI, GI %), H2291. The following applies: Table 3; 7 days; uM: osimertinib 0.5, afatinib 0.2, trametinib 0.02, TAK-733 0.18, palbociclib 0.15, ribociclib 5. The method, then:
as §1, §2, §3, §4

Assay [5] concerns KRAS^G12A-NSCLC H1573 cell line. Briefly: Ex vivo Edu proliferation test (MI, GI %), H1573. The following applies: Table 1; 4 days; uM: osimertinib 0.5, afatinib 0.2, cobimetinib 0.4, trametinib 0.02, TAK-733 0.18, palbociclib 0.15, ribociclib 5. As for the experimental part:
as §1, §2, §3
The MI (Maximum Inhibition Index) was calculated using the EpCAM and Edu positive readout (Tables 1-4). MI=Edu positive cells in control/Edu positive cells in treatment. MI4 indicates an MI value after 4 days of treatment and MI7 indicates an MI values after 7 days of treatment. […] GI % is calculated as GI %=(1−1/MI)*100%.

Assay [6] deals with KRAS^G12C-NSCLC H23 cell line. Kind of assay: Ex vivo Edu proliferation test (MI, GI %), H23. Conditions: Table 2a; 7 days; uM: osimertinib 0.5, afatinib 0.2, cobimetinib 0.4, trametinib 0.02, palbociclib 0.15, ribociclib 5. The method, then: as §1, §2, §3, §4
The test system of assay [7] is KRAS^G12D-NSCLC H1588 cell line. Briefly: Ex vivo Edu proliferation test (MI, GI %), H1588. The following applies: Table 4; 4 days; uM: osimertinib 0.5, afatinib 0.2, cobimetinib 0.4, trametinib 0.02, TAK-733 0.18, palbociclib 0.15, ribociclib 5. As for the experimental part: as §1, §2, §3, §4
In assay [8] the test system is KRAS^G12V-NSCLC H2444 cell line. Kind of assay: Ex vivo Edu proliferation test (MI, GI %), H2444. The following applies: Table 3; 4 days; uM: osimertinib 0.5, afatinib 0.2, trametinib 0.02, TAK-733 0.18, palbociclib 0.15, ribociclib 5. As for the experimental part: as §1, §2, §3, §4
Assay [9] has as its system KRAS^G12D-NSCLC SK-LU-1 cell line. Kind of assay: Ex vivo Edu proliferation test (MI, GI %), SK-LU-1. Conditions: Table 4; 4 days; uM: osimertinib 0.5, afatinib 0.2, cobimetinib 0.4, trametinib 0.02, TAK-733 0.18, palbociclib 0.15, ribociclib 5. As for the experimental part:
as §1, §2, §3, §4

On to `CC(=O)c1c(C)c2cnc(Nc3ccc(N4CCNCC4)cn3)nc2n(C2CCCC2)c1=O` [Palbociclib, palbociclib], for which, in assay [1], the “GI % (Growth Inhibition Rate), H2030” value is 52.39% and the “MI 7 (Maximum Inhibition Index), H2030” value was 2.10. For the same molecule, in assay [2], the “GI % (Growth Inhibition Rate), H2009” value amounted to 8.82% and the “MI 4 (Maximum Inhibition Index), H2009” value is on record as 1.10. Moreover, in assay [3], the “GI % (Growth Inhibition Rate), H358” value is recorded as 60.31% and the “MI 7 (Maximum Inhibition Index), H358” value is 2.53. Besides, in assay [4], the “GI % (Growth Inhibition Rate), H2291” value came out at 81.25% and the “MI 7 (Maximum Inhibition Index), H2291” value came to 5.36. Moreover, in assay [5], the “GI % (Growth Inhibition Rate), H1573” value is recorded as 92.17% and the “MI 4 (Maximum Inhibition Index), H1573” value is on record as 12.77. In [6], the “GI % (Growth Inhibition Rate), H23” value is 41.73% and the “MI 7 (Maximum Inhibition Index), H23” value was 1.72. Besides, in assay [7], the “GI % (Growth Inhibition Rate), H1588” value is listed as 53.52% and the “MI 4 (Maximum Inhibition Index), H1588” value is reported as 2.15. Moreover, in [8], the “GI % (Growth Inhibition Rate), H2444” value was 59.59% and the “MI 4 (Maximum Inhibition Index), H2444” value came out at 2.47. Also, in [9], the “GI % (Growth Inhibition Rate), SK-LU-1” value is 73.45% and the “MI 4 (Maximum Inhibition Index), SK-LU-1” value came out at 3.77.
With `CN(C)C(=O)c1cc2cnc(Nc3ccc(N4CCNCC4)cn3)nc2n1C1CCCC1` [Ribociclib, ribociclib], in [1], the “GI % (Growth Inhibition Rate), H2030” value came to 84.67% and the “MI 7 (Maximum Inhibition Index), H2030” value was found to be 6.57. Further, in assay [2], the “GI % (Growth Inhibition Rate), H2009” value is 10.09% and the “MI 4 (Maximum Inhibition Index), H2009” value is 1.11. In addition, in assay [3], the “GI % (Growth Inhibition Rate), H358” value is listed as 95.43% and the “MI 7 (Maximum Inhibition Index), H358” value worked out at 21.19. In assay [4], the “GI % (Growth Inhibition Rate), H2291” value was determined as 98.65% and the “MI 7 (Maximum Inhibition Index), H2291” value was 72.98. Besides, in [5], the “GI % (Growth Inhibition Rate), H1573” value is on record as 99.00% and the “MI 4 (Maximum Inhibition Index), H1573” value was 100.43. In [6], the “GI % (Growth Inhibition Rate), H23” value was 74.57% and the “MI 7 (Maximum Inhibition Index), H23” value came out at 3.96. In addition, in assay [7], the “GI % (Growth Inhibition Rate), H1588” value is 60.57% and the “MI 4 (Maximum Inhibition Index), H1588” value is 2.54. For the same molecule, in assay [8], the “GI % (Growth Inhibition Rate), H2444” value worked out at 74.54% and the “MI 4 (Maximum Inhibition Index), H2444” value is 3.93. In addition, in [9], the “GI % (Growth Inhibition Rate), SK-LU-1” value stood at 91.58% and the “MI 4 (Maximum Inhibition Index), SK-LU-1” value is given as 11.88.
As for `CC(=O)Nc1cccc(-n2c(=O)n(C3CC3)c(=O)c3c(Nc4ccc(I)cc4F)n(C)c(=O)c(C)c32)c1` [Trametinib, trametinib], in assay [1], the “GI % (Growth Inhibition Rate), H2030” value was determined as 64.45% and the “MI 7 (Maximum Inhibition Index), H2030” value is on record as 2.81. Further, in assay [2], the “GI % (Growth Inhibition Rate), H2009” value turned out to be 65.93% and the “MI 4 (Maximum Inhibition Index), H2009” value amounted to 2.93. In assay [3], the “GI % (Growth Inhibition Rate), H358” value is reported as 20.76% and the “MI 7 (Maximum Inhibition Index), H358” value was determined as 1.26. In addition, in assay [4], the “GI % (Growth Inhibition Rate), H2291” value is 75.62% and the “MI 7 (Maximum Inhibition Index), H2291” value is reported as 4.11. Besides, in [5], the “GI % (Growth Inhibition Rate), H1573” value was 87.80% and the “MI 4 (Maximum Inhibition Index), H1573” value is recorded as 8.20. For the same molecule, in assay [6], the “GI % (Growth Inhibition Rate), H23” value stood at 1.20% and the “MI 7 (Maximum Inhibition Index), H23” value is given as 1.01. Further, in assay [7], the “GI % (Growth Inhibition Rate), H1588” value came out at 45.63% and the “MI 4 (Maximum Inhibition Index), H1588” value turned out to be 1.84. In [8], the “GI % (Growth Inhibition Rate), H2444” value is 87.22% and the “MI 4 (Maximum Inhibition Index), H2444” value stood at 7.82. Moreover, in assay [9], the “GI % (Growth Inhibition Rate), SK-LU-1” value turned out to be 47.99% and the “MI 4 (Maximum Inhibition Index), SK-LU-1” value is 1.92.
